Legend:
[1] = target: T1, CrinOCP2 (Crinalium epipsammum, UniProt K9VSN3, E26A); assay: X-ray crystal structure, […] A; format: binding; conditions: bound in E. coli making echinenone; crystals pH 6.5; carotenoid site between NTD and CTD, keto group at Tyr201/Trp288
T1 construct: gene Cri9333_0045; full length from E. coli C41(DE3), codon-optimized, pET28a+, His-tag cut by thrombin leaving N-terminal GSH; monomer
T1 sequence (K9VSN3 1-319 E26A): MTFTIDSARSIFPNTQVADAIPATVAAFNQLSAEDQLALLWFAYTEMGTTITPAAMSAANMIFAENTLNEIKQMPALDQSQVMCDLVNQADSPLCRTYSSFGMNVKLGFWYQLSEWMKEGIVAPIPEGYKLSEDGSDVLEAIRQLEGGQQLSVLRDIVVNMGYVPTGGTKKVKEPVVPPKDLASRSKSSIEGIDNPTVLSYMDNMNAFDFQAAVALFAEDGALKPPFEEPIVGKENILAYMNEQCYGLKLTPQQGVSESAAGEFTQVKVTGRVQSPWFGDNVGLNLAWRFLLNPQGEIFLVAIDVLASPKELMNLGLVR

[2] = target: T2, SynOCP1 (Synechocystis sp. PCC 6803, UniProt P74102); assay: absorbance spectrum and photocycle of the holoprotein; format: binding; conditions: bound in E. coli making echinenone; pH 7.6, 150 mM NaCl
T2 construct: gene slr1963; full length from E. coli, tag removed, from earlier work; monomer in solution
T2 sequence (P74102 2-317): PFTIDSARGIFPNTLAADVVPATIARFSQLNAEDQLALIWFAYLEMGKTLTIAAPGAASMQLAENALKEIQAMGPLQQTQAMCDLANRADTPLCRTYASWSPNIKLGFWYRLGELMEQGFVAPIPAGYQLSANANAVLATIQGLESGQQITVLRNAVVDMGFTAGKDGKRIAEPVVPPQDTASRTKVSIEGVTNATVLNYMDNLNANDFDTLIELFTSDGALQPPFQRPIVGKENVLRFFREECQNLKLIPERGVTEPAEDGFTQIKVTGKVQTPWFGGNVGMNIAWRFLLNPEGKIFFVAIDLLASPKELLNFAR

SMILES: CC1=C(/C=C/C(C)=C/C=C/C(C)=C/C=C/C=C(C)/C=C/C=C(C)/C=C/C2=C(C)C(=O)CCC2(C)C)C(C)(C)CCC1 [ECH, echinenone]
- X-ray crystal structure, 2.2 A [1]: HPLC analysis indicated that both OCP2 variants contained ECH as the predominant carotenoid
- absorbance spectrum and photocycle of the holoprotein [2]: All proteins were ECH-bound.
